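Compound exposure: 48 hours, 5 concentrations, 96-well plates. GI50 = concentration required for 50% inhibition of growth. TGI marks complete inhibition of growth.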
Experiments:
Experiment in all cases: NCI-60 cell line screen, 48 h
HS 578T breast = system: HS 578T breast
SK-MEL-2 melanoma = system: SK-MEL-2 melanoma
M14 melanoma = system: M14 melanoma
HCC-2998 colon = system: HCC-2998 colon
HCT-116 colon = system: HCT-116 colon
SF-295 CNS = system: SF-295 CNS
RPMI-8226 leukemia = system: RPMI-8226 leukemia
HCT-15 colon = system: HCT-15 colon
HT29 colon = system: HT29 colon
OVCAR-4 ovarian = system: OVCAR-4 ovarian

Row | SMILES | GI50 (HS 578T breast) [µM] | TGI (HS 578T breast) [µM] | GI50 (SK-MEL-2 melanoma) [µM] | TGI (SK-MEL-2 melanoma) [µM] | GI50 (M14 melanoma) [µM] | TGI (M14 melanoma) [µM] | GI50 (HCC-2998 colon) [µM] | TGI (HCC-2998 colon) [µM] | GI50 (HCT-116 colon) [nM] | TGI (HCT-116 colon) [µM] | GI50 (SF-295 CNS) [nM] | TGI (SF-295 CNS) [µM] | GI50 (RPMI-8226 leukemia) [nM] | TGI (RPMI-8226 leukemia) [µM] | GI50 (HCT-15 colon) [µM] | TGI (HCT-15 colon) [µM] | GI50 (HT29 colon) [µM] | TGI (HT29 colon) [µM] | GI50 (OVCAR-4 ovarian) [µM] | TGI (OVCAR-4 ovarian) [µM]
1 | Cn1cc(C2=C(c3cn(CCO)c4ccccc34)C(=O)NC2=O)c2ccccc21 | 1.49 | 14.5 | 1.65 | 8.37 | 2.12 | > 25 | 5.56 | > 23.6 | 1490 | > 25 | 1180 | 7.58 | 5330 | 16 | 1.57 | > 25 | 1.5 | > 14.9 | 7.83 | > 25
2 | Fc1ccc(-c2nn3c(-c4ccc(F)c(Cl)c4)nnc3s2)cc1 | > 50 | > 50 | > 50 | > 50 | > 50 | > 50 | > 50 | > 50 | 21600 | > 50 | 18200 | > 50 | 22800 | > 50 | 22.7 | > 50 | 22.9 | > 50 | 10.1 | 41
3 | c1ccc2c(c1)sc1c3cnccc3ccc21 | – | > 100 | – | > 100 | – | > 100 | – | > 100 | – | > 100 | – | > 100 | – | > 100 | – | > 100 | – | > 100 | – | > 100
4 | CC(=O)Nc1ccc(/C=C/C(=O)c2ccccc2)cc1 | 5.97 | 43.3 | 19.7 | 35.5 | 16 | 33.3 | 15.5 | 29.7 | 3980 | 15.5 | 14400 | 31.7 | 3690 | 17.8 | 7.54 | 37.4 | 8.29 | 24.9 | 17.2 | 45.1
5 | N#C/C(=N\Nc1ccc(Cl)cc1)C(=O)Nc1cc(-c2ccccc2)nn1-c1ccccc1 | 3 | > 100 | 2.39 | 8.89 | 3.7 | > 100 | 3.74 | > 100 | 2700 | > 100 | 2860 | > 100 | 1770 | 6.67 | 2.14 | > 100 | 3.32 | > 100 | 2.25 | 7.62
6 | N#Cc1cccc(OCc2nc(N)nc(N)c2-c2ccc(Cl)c(Cl)c2)c1 | 4.41 | > 100 | 6.68 | > 100 | 0.639 | > 100 | 4.11 | > 100 | 472 | > 100 | 460 | 14.3 | 4650 | > 100 | 0.575 | > 100 | 0.797 | > 100 | > 100 | > 100
7 | CCOc1ccc(-c2cnnn2-c2nonc2-n2cccc2)cc1 | 0.229 | 0.873 | 0.308 | > 100 | 0.122 | 0.365 | 0.364 | > 33 | 226 | 1.46 | 295 | > 91.2 | 320 | 10.9 | 0.251 | > 100 | 0.22 | 4.54 | 0.655 | > 100
8 | CC(C)[C@H]1CC[C@H]2[C@@H](CC[C@H]3[C@](C)(CN)CCC[C@]23C)C1 | 2.45 | 6.67 | 2.57 | 5.99 | 1.77 | 3.18 | 1.79 | 3.18 | 1720 | 3.09 | 1830 | 3.87 | 2900 | 12.2 | 1.81 | 3.98 | 1.65 | 3.3 | 4.36 | 20.3
9 | CCCCCc1nc2c(c3c1CCCC3)CCCC2 | 14 | 69.3 | 12.7 | 27.4 | 12.9 | 29.4 | 10.2 | 29.5 | 3010 | 15.2 | 4580 | 20.9 | 3390 | 16.4 | 8.94 | 26.8 | 1.85 | 14.8 | 5.61 | 95.3
10 | O=S(=O)(Cc1ccc(Cl)cc1Cl)c1ccc(Cl)cc1 | 0.729 | > 100 | 0.326 | – | 0.5 | 48.2 | 1.09 | 8.97 | 471 | > 100 | 495 | 10.8 | 1140 | > 69.7 | 0.419 | > 100 | 0.338 | 3.84 | 5.73 | > 100
11 | Cc1cc2cc3cc(C)c(N(C)C)cc3[n+](C)c2cc1N(C)C | 2.35 | 14.9 | 4.57 | > 100 | 4.68 | 19.8 | 3.45 | 16.7 | 2550 | 20.7 | 2530 | 14 | 4540 | > 100 | 4.52 | 72.8 | 2.46 | > 100 | 2.83 | 34.2
12 | CCC1C(=O)OCc2c1cc1n(c2=O)Cc2cc3ccccc3nc2-1 (centres undefined) | – | > 100 | – | > 100 | – | 13.7 | – | > 100 | – | > 100 | – | > 33.7 | – | > 100 | – | > 100 | – | > 100 | – | > 100
13 | COc1cc(C(=O)N2N=C(c3ccc(S(C)(=O)=O)cc3)CC2c2ccco2)cc(OC)c1OC (centres undefined) | 5.42 | > 100 | 8.68 | > 100 | 5.81 | > 87.6 | 21 | > 100 | 3770 | > 100 | 3040 | > 100 | 647 | 4.36 | 4.13 | > 100 | 3.17 | > 100 | 7.45 | > 100
14 | COc1ccc2c(c1O)C13CCN(C)C(C2)C1CCC1(C3)OCCO1 (centres undefined) | – | > 100 | – | > 100 | – | > 100 | – | > 100 | – | > 100 | – | > 100 | – | > 100 | – | > 100 | – | > 100 | – | > 100
15 | N#Cc1ncc(-c2ccc(C(F)(F)F)cc2)c(NCc2cc(C(F)(F)F)cc(C(F)(F)F)c2)n1 | 3.08 | 59.8 | 2.89 | 7.15 | 5.19 | > 100 | 4.17 | > 100 | 2930 | > 100 | 2780 | 29.1 | 2290 | 5.87 | 3.52 | > 100 | 3.27 | > 100 | 3.33 | > 100
16 | CCC[CH2][Sn]([CH2]CCC)([O]C(=O)c1cc(F)ccc1F)[O][Sn]([CH2]CCC)([CH2]CCC)[O]C(=O)c1cc(F)ccc1F | 0.237 | 0.994 | 0.18 | 0.496 | 0.367 | 1.25 | 0.669 | 1.92 | 293 | 1.24 | 606 | 1.85 | 91.6 | > 100 | 0.254 | 0.87 | 0.899 | 2.21 | 0.513 | 1.73
17 | O=C1CC(c2cccc(O)c2)C2(C(=O)NC(=S)NC2=O)C(c2cccc(O)c2)C1 (centres undefined) | > 100 | > 100 | > 100 | > 100 | > 100 | > 100 | > 100 | > 100 | > 100000 | > 100 | > 100000 | > 100 | > 100000 | > 100 | > 100 | > 100 | > 100 | > 100 | > 100 | > 100
18 | N/C(=C\C(=O)n1nc(-c2ccccc2)cc1N)c1ccccc1 | 2.41 | 13 | 4.96 | 26.2 | 3.13 | 14.7 | 11.8 | 34.2 | 3770 | 16 | 3480 | 31.6 | 2750 | 16.2 | 4.09 | 74.6 | 3.46 | 13 | 12.5 | 47.1
19 | O=C1C2C(C(=O)[N]1[Hg][c]1cccs1)C1(Cl)C(Cl)=C(Cl)C2(Cl)C1(Cl)Cl (centres undefined) | 2.41 | 11.5 | 1.56 | 3.23 | 1.14 | 2.68 | 1.97 | 3.59 | 1250 | 2.54 | 3110 | 8.53 | 1410 | 6.38 | 0.821 | 2.27 | 0.649 | 3.57 | 1.24 | 2.51
20 | Oc1ccc(CN2CCC(N3CCOCC3)CC2)c2cccnc12 | 62.1 | > 100 | 52.8 | > 100 | 26.9 | > 100 | 51.7 | > 100 | 34400 | > 100 | 39800 | > 100 | 32700 | > 100 | 36.5 | > 100 | 100 | > 100 | 22.9 | > 100
21 | Nc1ccccc1-c1ccc([N+](=O)[O-])cc1 | 50.8 | > 100 | > 100 | > 100 | 97.7 | > 100 | 2.25 | 8.54 | 3400 | > 100 | 2180 | 64.8 | 4950 | > 100 | 14.3 | > 100 | 54.4 | > 100 | 40.8 | > 100
22 | COc1cc(-n2cc(-c3ccc(F)cc3)nc2SCc2ccccc2)cc(OC)c1OC | > 100 | > 100 | > 100 | > 100 | > 100 | > 100 | > 100 | > 100 | 18800 | > 100 | > 100000 | > 100 | > 100000 | > 100 | > 100 | > 100 | 13.4 | > 100 | > 100 | > 100
23 | Cn1ccnc1C(=O)/C=C/c1ccc(C(=O)Nc2ccc(S(F)(F)(F)(F)F)cc2)cc1 | 3.4 | > 14.3 | > 14.3 | > 14.3 | 9.17 | > 14.3 | 2.93 | > 14.3 | 854 | > 14.3 | 1620 | > 14.3 | 380 | 2.68 | 0.799 | 4.92 | 1.88 | > 14.3 | 0.704 | > 14.3
24 | O=c1ccc(N=Nc2ccc([N+](=O)[O-])cc2)ccc1O | 4.27 | > 100 | 9.33 | 73.6 | 7.19 | > 100 | 6.08 | > 100 | 4190 | > 100 | 4570 | > 100 | 3150 | > 100 | 3.89 | > 100 | 5.71 | > 100 | 5.17 | > 100
25 | O=C1c2cccnc2C(=O)C2C3C=CC(C3)C12 (centres undefined) | – | 85.1 | – | 16.9 | – | 28 | – | 29.9 | – | 14 | – | 26.6 | – | 8.97 | – | 34.8 | – | 60.9 | – | 21.7
26 | O=c1c2ccccc2c(Br)c(Br)c2ccccc12 | 11.8 | 42.1 | 13.3 | 32.5 | 4.8 | 16.3 | 17.3 | 35.8 | 4920 | 29.3 | 17100 | 36 | 2510 | 5.84 | 10.7 | > 100 | 3.04 | 8.13 | 9.24 | 80.9

— PubChem BioAssay (NCI)
